The experiment addresses purified human MMP-12 enzyme (Homo sapiens, UniProt P39900). Briefly: MMP-12 FRET assay. It counts as biochemical. As to conditions: substrate 20 μM, room temperature. An outline of the steps:
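Enzyme pre-incubated 30 min at room temperature with compound in 50 mM HEPES pH 7.4, 100 mM NaCl, 5 mM CaCl2, 0.005% Brij-35, 10% DMSO final. Reaction started with 20 μM MCA-Pro-Leu-Gly-Leu-Dpa(DNP)-Ala-Arg, and initial cleavage rate read over 30 min (λex 325, λem 395 nm). IC50 from slope-factor inhibition fit.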
Chain of purified human MMP-12 enzyme (P39900 106-470): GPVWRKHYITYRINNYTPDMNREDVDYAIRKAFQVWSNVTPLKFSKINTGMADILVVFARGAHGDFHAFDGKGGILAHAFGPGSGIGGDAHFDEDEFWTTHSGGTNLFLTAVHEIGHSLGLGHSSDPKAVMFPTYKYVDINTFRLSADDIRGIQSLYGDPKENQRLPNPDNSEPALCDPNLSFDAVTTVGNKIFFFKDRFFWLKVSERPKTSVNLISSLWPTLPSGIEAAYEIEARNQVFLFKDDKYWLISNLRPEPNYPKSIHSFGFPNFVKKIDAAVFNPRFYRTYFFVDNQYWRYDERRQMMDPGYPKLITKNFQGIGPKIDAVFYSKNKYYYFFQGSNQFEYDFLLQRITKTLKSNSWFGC
With `CC(C)[C@@H](NS(=O)(=O)c1ccc2oc3cc(-c4cnn(CCN5CCOCC5)c4)ccc3c2c1)C(=O)O` [Compound 172, (R)-3-methyl-2-(7-(1-(2-morpholinoethyl)-1H-pyrazol-4-yl)dibenzo[b,d]furan-2-sulfonamido)butanoic acid], 19 nM corresponded to half-maximal inhibition (IC50). This lies in the double-digit nanomolar range.
The result for `CC(C)[C@H](NS(=O)(=O)c1ccc2c(c1)sc1ccc(-c3ccsc3)cc12)C(=O)O` [Compound 26, (S)-3-methyl-2-(8-(thiophen-3-yl)dibenzo[b,d]thiophene-3-sulfonamido)butanoic acid] reads 38 nM; that for `CC(C)[C@H](NS(=O)(=O)c1ccc2c(c1)oc1ccc(-c3ccc(-c4ccc(Cl)nc4)nc3)cc12)C(=O)O` [Compound 59, (S)-2-(8-(6′-chloro-2,3′-bipyridin-5-yl)dibenzo[b,d]furan-3-sulfonamido)-3-methylbutanoic acid], below 1.5 nM; that for `CC(C)[C@@H](NS(=O)(=O)c1ccc2oc3cc(-c4ccc(C(C)(C)C)o4)ccc3c2c1)C(=O)O` [Compound 240, (R)-2-(7-(5-tert-butylfuran-2-yl)dibenzo[b,d]furan-2-sulfonamido)-3-methylbutanoic acid], 19 nM.
To `Cc1n[nH]c(C)c1-c1ccc2oc3cc(S(=O)(=O)N[C@H](C(=O)O)C(C)C)ccc3c2c1` [Compound 19, (S)-2-(8-(3,5-dimethyl-1H-pyrazol-4-yl)dibenzo[b,d]furan-3-sulfonamido)-3-methylbutanoic acid] belongs 44 nM; to `CC(C)[C@H](NS(=O)(=O)c1ccc2c(c1)sc1cc(-c3ccoc3)ccc12)C(=O)O` [Compound 60, (S)-2-(7-(furan-3-yl)dibenzo[b,d]thiophene-3-sulfonamido)-3-methylbutanoic acid], below 1.5 nM; to `Cc1nn(C)c(C)c1-c1ccc2c(c1)oc1ccc(S(=O)(=O)N[C@@H](C(=O)O)C(C)C)cc12` [Compound 174, (R)-3-methyl-2-(7-(1,3,5-trimethyl-1H-pyrazol-4-yl)dibenzo[b,d]furan-2-sulfonamido)butanoic acid], 227 nM.
To `CCC(C)Cn1cc(-c2ccc3oc4cc(S(=O)(=O)N[C@H](C(=O)O)C(C)C)ccc4c3c2)cn1` (stereo partly drawn) [Compound 157, (2S)-3-methyl-2-(8-(1-(2-methylbutyl)-1H-pyrazol-4-yl)dibenzo[b,d]furan-3-sulfonamido)butanoic acid] belongs 15 nM.
Regarding `COCC#Cc1ccc2c(c1)sc1cc(S(=O)(=O)N[C@H](C(=O)O)C(C)C)ccc12` [Compound 65, (S)-2-(7-(3-methoxyprop-1-ynyl)dibenzo[b,d]thiophene-3-sulfonamido)-3-methylbutanoic acid], it took 4.6 nM to reach half-maximal inhibition (IC50).
To `CC(C)[C@H](NS(=O)(=O)c1ccc2c(c1)oc1ccc(-c3cn[nH]c3)cc12)C(=O)O` [Compound 23, (S)-2-(8-(1H-pyrazol-4-yl)dibenzo[b,d]furan-3-sulfonamido)-3-methylbutanoic acid] belongs below 1.5 nM; to `COc1ccc2sc(-c3ccc4oc5cc(S(=O)(=O)N[C@H](C(=O)O)C(C)C)ccc5c4c3)nc2c1` [Compound 225, (S)-2-(8-(5-methoxybenzo[d]thiazol-2-yl)dibenzo[b,d]furan-3-sulfonamido)-3-methylbutanoic acid], below 1.5 nM; to `CC(C)[C@H](NS(=O)(=O)c1ccc2c(c1)oc1cc(-c3noc(-c4ccc(F)cc4)n3)ccc12)C(=O)O` [Compound 188, (S)-2-(7-(5-(4-fluorophenyl)-1,2,4-oxadiazol-3-yl)dibenzo[b,d]furan-3-sulfonamido)-3-methylbutanoic acid], 8.6 nM.
In the case of `CC(C)[C@H](NS(=O)(=O)c1ccc2c(c1)oc1cc(-c3nccs3)ccc12)C(=O)O` [Compound 137, (S)-3-methyl-2-(7-(thiazol-2-yl)dibenzo[b,d]furan-3-sulfonamido)butanoic acid], the IC50 (commonly the concentration that inhibits the measured activity by half) was determined as 11 nM.
Turning to `CC(C)[C@H](NS(=O)(=O)c1ccc2c(c1)oc1ccc(-c3cnc(Cl)s3)cc12)C(=O)O` [Compound 179, (S)-2-(8-(2-chlorothiazol-5-yl)dibenzo[b,d]furan-3-sulfonamido)-3-methylbutanoic acid], the IC50 is below 1.5 nM.
To `CCCn1cc(-c2ccc3sc4cc(S(=O)(=O)N[C@H](C(=O)O)C(C)C)ccc4c3c2)cn1` [Compound 42, (S)-3-methyl-2-(8-(1-propyl-1H-pyrazol-4-yl)dibenzo[b,d]thiophene-3-sulfonamido)butanoic acid] belongs 7.8 nM; to `CCc1ccc(-c2ccc3c(c2)oc2cc(S(=O)(=O)N[C@H](C(=O)O)C(C)C)ccc23)s1` [Compound 229, (S)-2-(7-(5-ethylthiophen-2-yl)dibenzo[b,d]furan-3-sulfonamido)-3-methylbutanoic acid], below 1.5 nM.
`Cc1nc(CC(C)C)sc1-c1ccc2c(c1)oc1ccc(S(=O)(=O)N[C@H](C(=O)O)C(C)C)cc12` [Compound 247, (S)-2-(7-(2-isobutyl-4-methylthiazol-5-yl)dibenzo[b,d]furan-2-sulfonamido)-3-methylbutanoic acid] returned an IC50 of 131 nM. In other words, the sub-micromolar range.

(Values after patent publication US20100227859A1, “TRICYCLIC COMPOUNDS AS MATRIX METALLOPROTEINASE INHIBITORS” (priority 2007, published 2010).)
